The test concerns the target full-length USP7 (Homo sapiens (Human), UniProt Q93009). Nature of the test: Enzymatic assay to determine IC50 of USP7 inhibitors (Ubiquitin-Rhodamine 110 cleavage). Format: biochemical. To be noted: for inhibition at 1 µM: read-out: percent value of inhibition of USP7 activity; for pIC50: 0.5 nM USP7, 0.5 μM Ubiquitin-Rhodamine 110, 45 min at 37° C. As for the experimental part:
For the inhibitors disclosed herein, their potency was measured using the following method.
A 45 μl reaction volume containing full-length USP7 (0.5 nM) in 50 mM HEPES pH 7.5, 150 mM NaCl, 1 mM DTT, 1 mg/ml BSA and 0.05% Tween20 was assembled in wells of 96 well half area black flat bottom plates. Test compounds were first dissolved to 25 mM stocks in DMSO and subsequently introduced to enzyme 15 min after USP7 incubation with DTT at room temperature. The enzymatic reaction was started by adding 0.5 μM Ubiquitin-Rhodamine 110 (final concentration) and allowed to proceed for 45 min at 37° C., 250 RPM shaking before Rhodamine fluorescence (485 nm excitation/520 nm emission) was measured using Tecan Spark M10 plate reader.

[1] abbreviates: at 1 μM of the test compound, given where IC50 not determined yet.

pIC50: −log10 of the molar value. Where a name gives a salt, the structure may show the parent alone. Read-outs that look alike come from different tables or passages of the source.

Chain of full-length USP7 (Q93009 whole entry): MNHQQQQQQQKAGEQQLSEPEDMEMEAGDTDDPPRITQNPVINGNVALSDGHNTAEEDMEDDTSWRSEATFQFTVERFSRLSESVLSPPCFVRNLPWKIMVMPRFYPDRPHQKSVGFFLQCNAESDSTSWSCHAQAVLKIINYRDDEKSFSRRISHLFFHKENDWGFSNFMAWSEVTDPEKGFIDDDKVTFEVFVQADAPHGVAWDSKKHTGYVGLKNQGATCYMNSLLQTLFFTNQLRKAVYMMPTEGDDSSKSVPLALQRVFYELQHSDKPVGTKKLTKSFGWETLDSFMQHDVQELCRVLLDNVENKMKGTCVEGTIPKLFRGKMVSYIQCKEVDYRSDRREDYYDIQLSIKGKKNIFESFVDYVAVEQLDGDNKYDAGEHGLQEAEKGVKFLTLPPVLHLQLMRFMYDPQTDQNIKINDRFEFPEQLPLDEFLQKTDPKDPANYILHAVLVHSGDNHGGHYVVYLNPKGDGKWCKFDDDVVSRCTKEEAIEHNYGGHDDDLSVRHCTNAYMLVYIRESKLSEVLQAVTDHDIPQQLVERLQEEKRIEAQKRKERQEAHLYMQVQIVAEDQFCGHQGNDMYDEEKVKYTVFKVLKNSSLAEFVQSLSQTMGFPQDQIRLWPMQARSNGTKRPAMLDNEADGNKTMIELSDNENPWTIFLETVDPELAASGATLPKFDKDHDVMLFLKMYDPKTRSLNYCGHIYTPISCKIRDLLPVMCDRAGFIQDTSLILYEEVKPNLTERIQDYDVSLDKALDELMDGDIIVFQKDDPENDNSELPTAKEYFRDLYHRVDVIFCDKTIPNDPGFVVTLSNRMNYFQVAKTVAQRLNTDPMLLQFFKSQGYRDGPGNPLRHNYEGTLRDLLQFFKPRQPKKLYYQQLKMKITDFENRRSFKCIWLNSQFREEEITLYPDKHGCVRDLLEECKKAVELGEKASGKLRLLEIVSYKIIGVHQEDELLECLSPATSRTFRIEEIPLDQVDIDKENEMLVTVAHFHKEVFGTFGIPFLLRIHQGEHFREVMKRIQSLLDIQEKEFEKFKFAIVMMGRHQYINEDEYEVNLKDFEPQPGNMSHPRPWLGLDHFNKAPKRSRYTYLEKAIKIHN

Turning to `Cc1cc(-c2ccnc3cc(CN4C(=O)C5C(C4=O)C5(C)C)sc23)c(O[C@H]2CCCNC2)cn1` (stereo partly drawn) [Example 119, 6,6-dimethyl-3-((7-(2-methyl-5-(((S)-piperidin-3-yl)oxy)pyridin-4-yl)thieno[3,2-b]pyridin-2-yl)methyl)-3-azabicyclo[3.1.0]hexane-2,4-dione 2,2,2-trifluoroacetate], the inhibition at 1 µM under setting [1] was less than 20%. With `Cc1cc(Cl)cc(-c2ccnc3c2nc(C)n3C)c1O[C@H]1CCCNC1` [Example 68, (S)-7-(5-chloro-3-methyl-2-(piperidin-3-yloxy)phenyl)-2,3-dimethyl-3H-imidazo[4,5-b]pyridine hydrochloride], the inhibition at 1 µM under setting [1] was less than 20%. `Cc1nc(C#N)cc(-c2ccnc3cc(CN4C(=O)C5C(C4=O)C5(C)C)sc23)c1NC1CCNC1` (stereo not drawn) [Example 26, 4-(2-((6,6-dimethyl-2,4-dioxo-3-azabicyclo[3.1.0]hexan-3-yl)methyl)thieno[3,2-b]pyridin-7-yl)-6-methyl-5-(pyrrolidin-3-ylamino)picolinonitrile 2,2,2-trifluoroacetate] had a negative-log IC50 (pIC50) of more than 6.30. On to “N-(2-(2-((6,6-dimethyl-2,4-dioxo-3-azabicyclo[3.1.0]hexan-3-yl)methyl)thieno[3,2-b]pyridin-7-yl)-4-methyl-6-(trifluoromethyl)pyridin-3-yl)azetidine-3-carboxamide 2,2,2-trifluoroacetate [Example 28]”, for which the pIC50 was more than 6.30. As for `CC1(C)C2C(=O)N(Cc3cc4nccc(-c5nccn5CC5CNCCO5)c4s3)C(=O)C21` (stereo not drawn) [Example 147, 6,6-dimethyl-3-((7-(1-(morpholin-2-ylmethyl)-1H-imidazol-2-yl)thieno[3,2-b]pyridin-2-yl)methyl)-3-azabicyclo[3.1.0]hexane-2,4-dione 2,2,2-trifluoroacetate], the inhibition at 1 µM was less than 20%. `Cc1nc(C(F)(F)F)cc(-c2ccnc3cc(CN4C(=O)C5C(C4=O)C5(C)C)sc23)c1CC1CNCCO1` (racemic) [Example 91, 6,6-dimethyl-3-((7-(2-methyl-3-(morpholin-2-ylmethyl)-6-(trifluoromethyl)pyridin-4-yl)thieno[3,2-b]pyridin-2-yl)methyl)-3-azabicyclo[3.1.0]hexane-2,4-dione 2,2,2-trifluoroacetate]: the pIC50 is more than 6.30. For the compound `CC1(C)C2C(=O)N(Cc3cc4nccc(-c5cc(Cl)cnc5O[C@H]5CCCNC5)c4s3)C(=O)C21` (stereo partly drawn) [Example 161, 3-((7-(5-chloro-2-(((S)-piperidin-3-yl)oxy)pyridin-3-yl)thieno[3,2-b]pyridin-2-yl)methyl)-6,6-dimethyl-3-azabicyclo[3.1.0]hexane-2,4-dione dihydrochloride], the inhibition at 1 µM under setting [1] was in the range of 50 to 70%. Regarding `Cc1cc(C(F)(F)F)nc(-c2ccnc3cc(CN4C(=O)C5C(C4=O)C5(C)C)sc23)c1C(=O)N1C[C@@H](N)[C@H](F)C1` (stereo partly drawn) [Example 117, 3-((7-(3-((3R,4R)-3-amino-4-fluoropyrrolidine-1-carbonyl)-4-methyl-6-(trifluoromethyl)pyridin-2-yl)thieno[3,2-b]pyridin-2-yl)methyl)-6,6-dimethyl-3-azabicyclo[3.1.0]hexane-2,4-dione dihydrochloride], the pIC50 is more than 6.30. On to `CCc1nc(C(F)(F)F)cc(-c2ccnc3cc(CN4C(=O)C5C(C4=O)C5(C)C)sc23)c1NC(=O)C1CCNCC1` (stereo not drawn) [Example 33, N-(4-(2-((6,6-dimethyl-2,4-dioxo-3-azabicyclo[3.1.0]hexan-3-yl)methyl)thieno[3,2-b]pyridin-7-yl)-2-ethyl-6-(trifluoromethyl)pyridin-3-yl)piperidine-4-carboxamide 2,2,2-trifluoroacetate], for which the inhibition at 1 µM was less than 20%. `Cc1cc(C(F)(F)F)nc(-c2ccnc3cc(CN4C(=O)C5C(C4=O)C5(C)C)sc23)c1C(=O)N1CCC(N)CC1` (stereo not drawn) [Example 112, 3-((7-(3-(4-aminopiperidine-1-carbonyl)-4-methyl-6-(trifluoromethyl)pyridin-2-yl)thieno[3,2-b]pyridin-2-yl)methyl)-6,6-dimethyl-3-azabicyclo[3.1.0]hexane-2,4-dione dihydrochloride] gave a pIC50 of more than 6.30. For `Cc1cc(C(F)(F)F)nc(-c2ccnc3cc(CN4C(=O)C5C(C4=O)C5(C)C)sc23)c1CC1NCCNC1=O` (stereo not drawn) [Example 165, 6,6-dimethyl-3-((7-(4-methyl-3-((3-oxopiperazin-2-yl)methyl)-6-(trifluoromethyl)pyridin-2-yl)thieno[3,2-b]pyridin-2-yl)methyl)-3-azabicyclo[3.1.0]hexane-2,4-dione hydrochloride], the inhibition at 1 µM under setting [1] is 20 to 49%.

On to `Cc1cc(C(F)(F)F)nc(-c2ccnc3cc(CN4C(=O)C5C(C4=O)C5(C)C)sc23)c1C(=O)NC1CNC1` (stereo not drawn) [Example 70, N-(azetidin-3-yl)-2-(2-((6,6-dimethyl-2,4-dioxo-3-azabicyclo[3.1.0]hexan-3-yl)methyl)thieno[3,2-b]pyridin-7-yl)-4-methyl-6-(trifluoromethyl)nicotinamide dihydrochloride], for which the pIC50 is 6.00 to 6.30. Take `Cc1ccnc(CC2CNCCO2)c1-c1ccnc2cc(CN3C(=O)C4C(C3=O)C4(C)C)sc12` (stereo not drawn) [Example 93, 6,6-dimethyl-3-((7-(4-methyl-2-(morpholin-2-ylmethyl)pyridin-3-yl)thieno[3,2-b]pyridin-2-yl)methyl)-3-azabicyclo[3.1.0]hexane-2,4-dione 2,2,2-trifluoroacetate]: the inhibition at 1 µM is less than 20%. On to `Cc1cc(C(F)(F)F)nc(-c2ccnc3cc(CN4C(=O)C5C(C4=O)C5(C)C)sc23)c1C(=O)N1CC2CCC1CN2` (stereo not drawn) [Example 156, 3-((7-(3-(2,5-diazabicyclo[2.2.2]octane-2-carbonyl)-4-methyl-6-(trifluoromethyl)pyridin-2-yl)thieno[3,2-b]pyridin-2-yl)methyl)-6,6-dimethyl-3-azabicyclo[3.1.0]hexane-2,4-dione hydrochloride], for which the pIC50 is more than 6.30. Same read-out and setting: next, `Cc1cc(C#N)nc(-c2ccnc3cc(CN4C(=O)C5C(C4=O)C5(C)C)sc23)c1C(=O)N1CCC(F)(F)C1` (stereo not drawn) [Example 59, 5-(3,3-difluoropyrrolidine-1-carbonyl)-6-(2-((6,6-dimethyl-2,4-dioxo-3-azabicyclo[3.1.0]hexan-3-yl)methyl)thieno[3,2-b]pyridin-7-yl)-4-methylpicolinonitrile hydrochloride]: more than 6.30. Turning to `CC1(C)C2C(=O)N(Cc3cc4nccc(-c5ncc[nH]5)c4s3)C(=O)C21` (stereo not drawn) [Example 146, 3-((7-(1H-imidazol-2-yl)thieno[3,2-b]pyridin-2-yl)methyl)-6,6-dimethyl-3-azabicyclo[3.1.0]hexane-2,4-dione 2,2,2-trifluoroacetate], the inhibition at 1 µM is less than 20%. As for “6-(2-((6,6-dimethyl-2,4-dioxo-3-azabicyclo[3.1.0]hexan-3-yl)methyl)thieno[3,2-b]pyridin-7-yl)-4-methyl-5-((S)-2-methylpiperazine-1-carbonyl)picolinonitrile hydrochloride [Example 47]”, the pIC50 was more than 6.30. Still for that read-out and setting: next, `Cc1nc(C#N)cc(-c2ccnc3cc(CN4C(=O)C5C(C4=O)C5(C)C)sc23)c1C(=O)N1CC[C@H](O)C1` (stereo partly drawn) [Example 11, 4-(2-((6,6-dimethyl-2,4-dioxo-3-azabicyclo[3.1.0]hexan-3-yl)methyl)thieno[3,2-b]pyridin-7-yl)-5-((S)-3-hydroxypyrrolidine-1-carbonyl)-6-methylpicolinonitrile 2,2,2-trifluoroacetate]: more than 6.30.

As a reminder, the inhibition is the relative decrease from the control value, in per cent. A word on the pIC50: it is −log10 of the IC50, conventionally taken in molar units.

For the origin of these results see patent US12404279B2, “Deubiquitinase inhibitors and methods of use thereof” (Molecure S.A., priority 2021, dated 2025).
